Broadly, the MIC is the lowest concentration found to suppress growth.

We go through nine compounds from PMC9026286, “Bacterial Lipodepsipeptides and Some of Their Derivatives and Cyclic Dipeptides as Potential Agents for Biocontrol of Pathogenic Bacteria and Fungi of Agrarian Plants” (Journal of Agricultural and Food Chemistry, 2022).

For assay [1], the system named is Colletotrichum truncatum 17-5-5. The following applies: strain 17-5-5; lipodepsipeptides, serial dilutions from 0.1 to 1 μg/mL, potato dextrose broth, 24-well plates, 28 °C, 7 days; lowest concentration with no visible growth; triplicate.
Description: The antifungal activity was performed in 24-well culture plates according to the method previously described[31] with some modification. Serial dilutions of different lipodepsipeptides (from 0.1 to 1 μg/mL) and cyclic dipeptides (from 10 to 1000 μg/mL) were dissolved in a volume of 500 μL of ultrapure Milli-Q and finally inoculated with 500 μL of 2× potato dextrose broth (Difco) containing the Colletotrichum truncatum plug of 4 mm × 4 mm diameter. As a control, C. truncatum plugs (4 mm × 4 mm) were grown in 2× PD broth diluted with 500 μL of ultrapure Milli-Q water, and the plates were incubated at 28 °C for 7 days. The MIC was measured as the lowest concentration of antifungal agent at which there was no visible growth of the fungus after incubation. The experiment was performed in triplicate.
For assay [2], the system named is all the bacteria and the fungus tested. Nature of the assay: Antimicrobial and antifungal tests, MIC ranges summarised over the panel. The assay is classed as cell-based. The note with it: for reduction of activity with respect to that of 9: compared with compound 9. As for the experimental part: (§1) The experiment was performed in triplicate.
as §1

The test system of the next assay is Phytophthora infestans. The note with it: cited from earlier work.
A further assay has as its system Plasmopara viticola. The following applies: cited from earlier work.
In a further assay the test system is Bacillus subtilis PY79. The note with it: PY79, 48 h.
In another assay the test system is Bacillus megaterium QMB. The note with it: 48 h.
In the next assay the test system is Rhodococcus fascians LMG. The note with it: cited from earlier work.
The mark [3] stands for this setting: lipodepsipeptides and derivatives, range over all the bacteria and the fungus tested (summary of Table 1).
The mark [4] stands for this setting: 2,5-diketopiperazines, range over all microorganisms tested (summary of Table 2).

Values after ≈ are worked out from the molar mass of the structure shown. Where a SMILES comes first, the peptide text is derived from it. Bridges are numbered along the chain shown (N, C = ends). [ ]: non-standard residue; d: D form. The star is where a group is joined. ξ: configuration not given here. d(aThr) = C[C@@H](O)[C@@H](N)C(=O)O; Octanoyl(3-OH) = CCCCCC(O)CC(=O)*; X1 = CCCCCC(CC(=O)*)OC(C)=O; dDab = NCC[C@@H](N)C(=O)O; hSer = N[C@@H](CCO)C(=O)O; ξQ = NC(=O)CCC(N)C(=O)O; Dhb = C/C=C(\N)C(=O)O; ξL = CC(C)CC(N)C(=O)O; ξDab = NCCC(N)C(=O)O; ξK = NCCCCC(N)C(=O)O; ξT = CC(O)C(N)C(=O)O; ξV = CC(C)C(N)C(=O)O; ξAbu = CCC(N)C(=O)O; ξP = O=C(O)C1CCCN1; ξS = NC(CO)C(=O)O

Description for Bacillus megaterium QMB: (§2) Bacteria were grown in LB broth at 25 or 37 °C overnight at 150 rpm. A total of 500 μL of a suspension containing about 10^8 cfu mL^–1 were added to 3 mL of LB soft agar (0.7%) and poured onto plates containing 7 mL of LB broth with agar 1.8%. After agar gelification, 10 μL drops of serial dilutions of different lipodepsipeptides and their derivatives (from 0.1 to 1 μg/mL) and cyclic dipeptides (from 10 to 1000 μg/mL) were tested. After 24 ± 48 h of incubation at 25 or 37 °C, the end serial dilution inhibiting the growth of the bacteria in the area of application of 10 μL solutions was recorded. The plates containing the bacteria alone were used as a control. The experiment was performed in triplicate.
Description for Bacillus subtilis PY79: as §2

As to `C/C=C(\NC(=O)[C@H](NC(=O)[C@H](CC(C)C)NC(=O)[C@@H](CCC(N)=O)NC(=O)[C@@H](NC(=O)[C@H](NC(=O)[C@@H](CC(C)C)NC(=O)[C@@H](CO)NC(=O)[C@H](NC(=O)[C@@H](CC(C)C)NC(=O)[C@@H](CO)NC(=O)[C@H]1CCCN1C(=O)/C(=C/C)NC(=O)CC(O)CCCCC)C(C)C)C(C)C)C(C)C)C(C)C)C(=O)N[C@H]1C(=O)N[C@@H]([C@@H](C)CC)C(=O)N[C@@H](CCO)C(=O)N[C@H](CCN)C(=O)N[C@@H](CCCCN)C(=O)O[C@@H]1C` (stereo partly drawn) [compound 1, tolaasin I] ({Octanoyl(3-OH)}-[Dhb][dP][dS][dL][dV][dS][dL][dV]V[dQ]L[dV][Dhb][d(aThr)]I[hSer][dDab]K; ester 14-C), the MIC in assay [1] stood at 0.6 µg/mL (≈ 0.302 µM).
`C/C=C(\NC(=O)C(NC(=O)C(CC(C)C)NC(=O)C(CCC(N)=O)NC(=O)C(NC(=O)C(NC(=O)C(CC(C)C)NC(=O)C(CO)NC(=O)C(NC(=O)C(CC(C)C)NC(=O)C(CO)NC(=O)C1CCCN1C(=O)/C(=C/C)NC(=O)CC(O)CCCCC)C(C)C)C(C)C)C(C)C)C(C)C)C(=O)NC1C(=O)N[C@@H](CC(C)C)C(=O)N[C@@H](CCO)C(=O)NC(CCN)C(=O)NC(CCCCN)C(=O)OC1C` (stereo partly drawn) [compound 7, tolaasin D] ({Octanoyl(3-OH)}-[Dhb][ξP][ξS][ξL][ξV][ξS][ξL][ξV][ξV][ξQ][ξL][ξV][Dhb][ξT]L[hSer][ξDab][ξK]; ester 14-C) came in with an MIC range in assay [2] (setting [3]) of 0.1 to 0.2 µg/mL. For the same compound, the MIC in assay [1] was 0.2 µg/mL (≈ 0.101 µM).
The compound `O=C1N[C@@H](Cc2ccc(O)cc2)C(=O)N2CCC[C@@H]12` [compound 9, cyclo(L-Pro-L-Tyr)] gave an MIC range in assay [2] (setting [4]) of 15 to 20 µg/mL. In the assay on Phytophthora infestans, the “antifungal activity against Phytophthora infestans” value is “showed antifungal activity”. Moreover, in the assay with Plasmopara viticola, the “antifungal activity against Plasmopara viticola” value is recorded as “showed antifungal activity”.
As for `CC(C)C[C@@H]1NC(=O)[C@@H]2CCCN2C1=O` [compound 13, cyclo(L-Pro-L-Leu)], in assay [2] (2,5-diketopiperazines), the “reduction of activity with respect to that of 9” value is recorded as 40–50 times. Besides, the minimal inhibitory concentration (MIC) with Bacillus subtilis PY79 came out at 15 µg/mL (≈ 71.3 µM); against Bacillus megaterium QMB, 30 µg/mL (≈ 143 µM).
As to `O=C1N[C@@H](Cc2ccc(O)cc2)C(=O)N2CCC[C@H]12` [compound 14, cyclo(D-Pro-L-Tyr)], the “reduction of activity with respect to that of 9” value in assay [2] (2,5-diketopiperazines) is recorded as 50–60 times.
Turning to `C/C=C(\NC(=O)[C@H](NC(=O)[C@H](CC(C)C)NC(=O)[C@@H](CCC(N)=O)NC(=O)[C@@H](NC(=O)[C@H](NC(=O)[C@@H](CC(C)C)NC(=O)[C@@H](COC(C)=O)NC(=O)[C@H](NC(=O)[C@@H](CC(C)C)NC(=O)[C@@H](COC(C)=O)NC(=O)[C@H]1CCCN1C(=O)/C(=C/C)NC(=O)CC(CCCCC)OC(C)=O)C(C)C)C(C)C)C(C)C)C(C)C)C(=O)N[C@H]1C(=O)N[C@@H]([C@@H](C)CC)C(=O)N[C@@H](CCOC(C)=O)C(=O)N[C@H](CCNC(C)=O)C(=O)N[C@@H](CCCCNC(C)=O)C(=O)O[C@@H]1C` (stereo partly drawn) [compound 15, hexacetyl tolaasin I] (X1-[Dhb][dP][dS](Ac)[dL][dV][dS](Ac)[dL][dV]V[dQ]L[dV][Dhb][d(aThr)]I[hSer](Ac)[dDab](Ac)K(Ac); ester 14-C), the MIC range in assay [2] (lipodepsipeptides and derivatives, range against the pathogenic bacteria and C. truncatum only) was in the range of 0.7 to 1 µg/mL; in assay [2] (setting [3]), 0.7 to 1 µg/mL. Moreover, in assay [1], the MIC was 1 µg/mL (≈ 0.446 µM).
Regarding `CCCCCC(O)CC(=O)NC(CC)C(=O)N1CCC[C@@H]1C(=O)N[C@H](CO)C(=O)N[C@H](CC(C)C)C(=O)N[C@@H](C(=O)N[C@H](CO)C(=O)N[C@H](CC(C)C)C(=O)N[C@@H](C(=O)N[C@H](C(=O)N[C@H](CCC(N)=O)C(=O)N[C@@H](CC(C)C)C(=O)N[C@@H](C(=O)NC(CC)C(=O)N[C@H]1C(=O)N[C@@H]([C@@H](C)CC)C(=O)N[C@@H](CCO)C(=O)N[C@H](CCN)C(=O)N[C@@H](CCCCN)C(=O)O[C@@H]1C)C(C)C)C(C)C)C(C)C)C(C)C` (stereo partly drawn) [compound 16, tetrahydro tolaasin I] ({Octanoyl(3-OH)}-[ξAbu][dP][dS][dL][dV][dS][dL][dV]V[dQ]L[dV][ξAbu][d(aThr)]I[hSer][dDab]K; ester 14-C), the MIC range in assay [2] (setting [3]) is 0.2 to 3 µg/mL. The MIC in assay [1] amounted to 3 µg/mL (≈ 1.51 µM).
In assay [1], WLIP methyl ester [WILP methyl ester] returned an MIC of 5 µg/mL.
For the compound cyclo(L-Pro-L-Val) [compound 11], the MIC range entry in assay [2] (setting [4]) is reported as “not toxic”. Besides, the “toxicity against Rhodococcus fascians” value in the assay on Rhodococcus fascians LMG is listed as “toxicity similar to that of chloramphenicol”.
